# Laboratory results published in article PMC6892409, “Phenotypic proteomic profiling identifies a landscape of targets for circadian clock–modulating compounds” (Life Science Alliance, 2019).
# Like-named read-outs stand apart in the source and are kept apart here.
# Tests used:
# [1] = tested on: Per2-dLuc U2OS cells; assay: Circadian luminescence period assay, Per2-dLuc U2OS cells; format: cell-based, human; details: for Effect of kinase inhibitor on circadian period length: threefold serial dilution starting at 100 μM; for Circadian period length: 8 μM, mean ± SEM, control 24.2 ± […]
# Procedure: Per2-dLuc U2OS osteosarcoma and Bmal1-dLuc U2OS osteosarcoma reporter cell lines were gifts from Dr Andrew Liu, University of Memphis, USA ([Liu et al, 2008]). […] The cells were cultured at 37°C, 5% CO2 in a standard humidified incubator.
# [2] = target: T1, CAMK2d (Homo sapiens, UniProt Q13557); assay: Radiometric HotSpot kinase assay; format: biochemical; details: read-out: Enzyme activity (%) CAMK2d
# T1 construct: purchased Reaction Biology
# T1 sequence (Q13557 whole entry): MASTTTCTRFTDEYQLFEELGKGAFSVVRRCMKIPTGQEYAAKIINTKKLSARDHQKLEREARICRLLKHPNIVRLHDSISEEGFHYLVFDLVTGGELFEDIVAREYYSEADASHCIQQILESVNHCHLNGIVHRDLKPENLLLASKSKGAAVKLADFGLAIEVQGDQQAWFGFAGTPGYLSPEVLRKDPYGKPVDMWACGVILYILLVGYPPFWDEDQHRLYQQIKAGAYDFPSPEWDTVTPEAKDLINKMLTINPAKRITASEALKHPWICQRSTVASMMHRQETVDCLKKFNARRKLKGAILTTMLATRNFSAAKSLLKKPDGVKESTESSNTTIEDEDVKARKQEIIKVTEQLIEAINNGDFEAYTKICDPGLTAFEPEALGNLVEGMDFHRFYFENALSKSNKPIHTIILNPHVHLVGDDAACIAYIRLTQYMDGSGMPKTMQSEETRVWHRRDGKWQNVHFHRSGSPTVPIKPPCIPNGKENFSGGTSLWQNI
# Procedure: (§1) In brief, specific kinase/substrate pairs were mixed in a buffer containing 20 mM Hepes (pH 7.5), 10 mM MgCl2, 1 mM EGTA, 0.02% Brij35, 0.02 mg/ml BSA, 0.1 mM Na3VO4, 2 mM DTT, and 1% DMSO. […] After a 20-min incubation, ATP (cat. no. A7699; Sigma-Aldrich) and [γ-^33P] ATP (cat. no. NEG602H001MC; PerkinElmer) were added at a final total concentration of […].
# [3] = target: T2, ERK2/MAPK1 (Homo sapiens, UniProt P28482); assay: Radiometric HotSpot kinase assay; format: biochemical; details: read-out: Enzyme activity (%) ERK2/MAPK1
# T2 construct: purchased Reaction Biology
# T2 sequence (P28482 whole entry): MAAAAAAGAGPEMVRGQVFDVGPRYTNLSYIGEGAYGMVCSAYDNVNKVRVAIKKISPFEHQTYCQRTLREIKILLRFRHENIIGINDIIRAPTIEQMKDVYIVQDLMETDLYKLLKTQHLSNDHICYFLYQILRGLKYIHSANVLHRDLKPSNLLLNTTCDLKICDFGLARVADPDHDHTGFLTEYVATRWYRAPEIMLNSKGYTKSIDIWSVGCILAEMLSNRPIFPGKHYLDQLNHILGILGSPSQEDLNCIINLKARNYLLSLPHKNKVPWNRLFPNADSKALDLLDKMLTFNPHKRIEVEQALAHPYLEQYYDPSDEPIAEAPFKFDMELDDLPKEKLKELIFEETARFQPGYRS
# Procedure: as §1
# [4] = target: T3, CK1d (Homo sapiens, UniProt P48730); assay: Radiometric HotSpot kinase assay; format: biochemical; details: n = 3, remaining activity vs DMSO, read-out: Enzyme activity (%) CK1d
# T3 construct: purchased Reaction Biology
# Procedure: as §1
# [5] = target: T4, MST4/STK26 (Homo sapiens, UniProt Q9P289); assay: Radiometric HotSpot kinase assay; format: biochemical; details: read-out: Enzyme activity (%) MST4/STK26
# T4 construct: purchased Reaction Biology
# T4 sequence (Q9P289 whole entry): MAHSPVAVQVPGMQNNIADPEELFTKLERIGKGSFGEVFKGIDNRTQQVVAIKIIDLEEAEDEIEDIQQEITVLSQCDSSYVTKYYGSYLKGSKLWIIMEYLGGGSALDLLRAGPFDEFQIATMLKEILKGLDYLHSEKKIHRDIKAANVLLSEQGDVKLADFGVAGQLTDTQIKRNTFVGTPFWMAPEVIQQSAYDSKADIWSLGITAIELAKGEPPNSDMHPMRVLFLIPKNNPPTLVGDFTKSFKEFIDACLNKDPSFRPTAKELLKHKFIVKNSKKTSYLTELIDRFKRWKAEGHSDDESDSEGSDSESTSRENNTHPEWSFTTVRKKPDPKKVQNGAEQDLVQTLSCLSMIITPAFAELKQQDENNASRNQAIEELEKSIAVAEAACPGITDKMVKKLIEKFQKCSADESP
# Procedure: as §1
# [6] = target: T5, ERK1/MAPK3 (Homo sapiens, UniProt P27361); assay: Radiometric HotSpot kinase assay; format: biochemical; details: read-out: Enzyme activity (%) ERK1/MAPK3
# T5 construct: purchased Reaction Biology
# T5 sequence (P27361 whole entry): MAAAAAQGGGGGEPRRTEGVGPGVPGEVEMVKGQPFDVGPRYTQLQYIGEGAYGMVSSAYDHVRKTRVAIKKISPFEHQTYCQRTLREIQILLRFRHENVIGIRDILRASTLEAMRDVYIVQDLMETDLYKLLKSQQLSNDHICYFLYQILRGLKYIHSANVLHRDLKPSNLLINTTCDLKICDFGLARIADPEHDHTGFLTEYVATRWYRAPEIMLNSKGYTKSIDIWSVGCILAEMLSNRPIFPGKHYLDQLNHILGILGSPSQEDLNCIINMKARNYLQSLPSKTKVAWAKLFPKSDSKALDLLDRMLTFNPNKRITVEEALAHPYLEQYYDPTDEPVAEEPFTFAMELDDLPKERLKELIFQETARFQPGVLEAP
# Procedure: as §1
# [7] = target: T6, CDK7 (Homo sapiens, UniProt P50613); assay: Radiometric HotSpot kinase assay; format: biochemical; details: read-out: Enzyme activity (%) CDK7
# T6 construct: purchased Reaction Biology
# T6 sequence (P50613 whole entry): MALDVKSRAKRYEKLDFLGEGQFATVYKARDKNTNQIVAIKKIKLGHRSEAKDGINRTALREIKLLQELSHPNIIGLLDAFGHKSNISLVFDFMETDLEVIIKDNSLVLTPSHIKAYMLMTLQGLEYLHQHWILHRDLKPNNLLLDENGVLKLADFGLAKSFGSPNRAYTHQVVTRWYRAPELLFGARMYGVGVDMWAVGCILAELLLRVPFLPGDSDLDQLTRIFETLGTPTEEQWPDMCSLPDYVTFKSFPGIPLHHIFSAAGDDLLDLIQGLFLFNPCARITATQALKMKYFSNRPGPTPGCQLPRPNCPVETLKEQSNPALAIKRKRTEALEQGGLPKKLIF
# T6 sequence (P51946 whole entry partner): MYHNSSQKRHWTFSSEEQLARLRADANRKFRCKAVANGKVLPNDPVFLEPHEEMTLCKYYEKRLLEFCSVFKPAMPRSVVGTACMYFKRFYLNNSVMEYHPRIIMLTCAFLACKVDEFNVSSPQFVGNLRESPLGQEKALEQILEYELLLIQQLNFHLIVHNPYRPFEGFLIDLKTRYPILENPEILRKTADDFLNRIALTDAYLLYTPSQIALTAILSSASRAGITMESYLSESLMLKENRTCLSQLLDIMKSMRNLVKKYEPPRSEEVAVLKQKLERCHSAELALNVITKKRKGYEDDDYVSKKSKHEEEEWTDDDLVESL
# T6 sequence (P51948 whole entry partner): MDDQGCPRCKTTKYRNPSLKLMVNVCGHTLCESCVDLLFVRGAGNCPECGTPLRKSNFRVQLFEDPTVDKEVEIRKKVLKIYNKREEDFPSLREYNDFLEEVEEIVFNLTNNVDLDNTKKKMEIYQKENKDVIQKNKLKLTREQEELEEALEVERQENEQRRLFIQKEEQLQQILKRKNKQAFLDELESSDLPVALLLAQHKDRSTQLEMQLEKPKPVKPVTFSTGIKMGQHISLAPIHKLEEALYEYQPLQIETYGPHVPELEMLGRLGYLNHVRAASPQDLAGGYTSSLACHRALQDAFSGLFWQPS
# Procedure: as §1
# [8] = target: T7, CK2a (Homo sapiens, UniProt P68400); assay: Radiometric HotSpot kinase assay; format: biochemical; details: read-out: Enzyme activity (%) CK2a
# T7 construct: purchased Reaction Biology
# T7 sequence (P68400 whole entry): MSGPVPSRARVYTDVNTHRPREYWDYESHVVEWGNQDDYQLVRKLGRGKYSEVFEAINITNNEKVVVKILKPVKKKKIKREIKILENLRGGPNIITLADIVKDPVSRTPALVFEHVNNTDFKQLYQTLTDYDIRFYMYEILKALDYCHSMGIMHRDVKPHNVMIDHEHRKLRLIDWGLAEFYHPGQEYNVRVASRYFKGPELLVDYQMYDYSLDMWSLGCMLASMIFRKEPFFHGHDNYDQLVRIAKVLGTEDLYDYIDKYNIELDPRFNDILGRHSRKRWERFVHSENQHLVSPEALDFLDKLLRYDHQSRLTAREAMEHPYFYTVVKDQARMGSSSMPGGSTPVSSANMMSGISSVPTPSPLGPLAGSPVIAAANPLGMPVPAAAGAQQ
# Procedure: as §1
# [9] = target: T8, CAMK1d (Homo sapiens, UniProt Q8IU85); assay: Radiometric HotSpot kinase assay; format: biochemical; details: read-out: Enzyme activity (%) CAMK1d
# T8 construct: purchased Reaction Biology
# T8 sequence (Q8IU85 whole entry): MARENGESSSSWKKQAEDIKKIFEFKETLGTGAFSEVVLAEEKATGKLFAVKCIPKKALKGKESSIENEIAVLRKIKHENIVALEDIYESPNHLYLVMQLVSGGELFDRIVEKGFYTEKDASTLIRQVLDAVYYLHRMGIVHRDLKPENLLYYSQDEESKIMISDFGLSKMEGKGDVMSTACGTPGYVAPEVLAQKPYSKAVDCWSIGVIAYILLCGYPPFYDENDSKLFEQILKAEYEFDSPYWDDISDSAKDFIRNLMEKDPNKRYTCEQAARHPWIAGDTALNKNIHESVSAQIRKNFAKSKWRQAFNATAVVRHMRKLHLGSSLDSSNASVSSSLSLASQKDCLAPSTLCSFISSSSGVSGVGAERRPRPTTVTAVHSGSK
# Procedure: as §1
# [10] = target: T9, TNIK (Homo sapiens, UniProt Q9UKE5); assay: Radiometric HotSpot kinase assay; format: biochemical; details: for remaining activity at 100 µM: read-out: Enzyme activity (%) TNIK
# T9 construct: purchased Reaction Biology
# T9 sequence (Q9UKE5 whole entry): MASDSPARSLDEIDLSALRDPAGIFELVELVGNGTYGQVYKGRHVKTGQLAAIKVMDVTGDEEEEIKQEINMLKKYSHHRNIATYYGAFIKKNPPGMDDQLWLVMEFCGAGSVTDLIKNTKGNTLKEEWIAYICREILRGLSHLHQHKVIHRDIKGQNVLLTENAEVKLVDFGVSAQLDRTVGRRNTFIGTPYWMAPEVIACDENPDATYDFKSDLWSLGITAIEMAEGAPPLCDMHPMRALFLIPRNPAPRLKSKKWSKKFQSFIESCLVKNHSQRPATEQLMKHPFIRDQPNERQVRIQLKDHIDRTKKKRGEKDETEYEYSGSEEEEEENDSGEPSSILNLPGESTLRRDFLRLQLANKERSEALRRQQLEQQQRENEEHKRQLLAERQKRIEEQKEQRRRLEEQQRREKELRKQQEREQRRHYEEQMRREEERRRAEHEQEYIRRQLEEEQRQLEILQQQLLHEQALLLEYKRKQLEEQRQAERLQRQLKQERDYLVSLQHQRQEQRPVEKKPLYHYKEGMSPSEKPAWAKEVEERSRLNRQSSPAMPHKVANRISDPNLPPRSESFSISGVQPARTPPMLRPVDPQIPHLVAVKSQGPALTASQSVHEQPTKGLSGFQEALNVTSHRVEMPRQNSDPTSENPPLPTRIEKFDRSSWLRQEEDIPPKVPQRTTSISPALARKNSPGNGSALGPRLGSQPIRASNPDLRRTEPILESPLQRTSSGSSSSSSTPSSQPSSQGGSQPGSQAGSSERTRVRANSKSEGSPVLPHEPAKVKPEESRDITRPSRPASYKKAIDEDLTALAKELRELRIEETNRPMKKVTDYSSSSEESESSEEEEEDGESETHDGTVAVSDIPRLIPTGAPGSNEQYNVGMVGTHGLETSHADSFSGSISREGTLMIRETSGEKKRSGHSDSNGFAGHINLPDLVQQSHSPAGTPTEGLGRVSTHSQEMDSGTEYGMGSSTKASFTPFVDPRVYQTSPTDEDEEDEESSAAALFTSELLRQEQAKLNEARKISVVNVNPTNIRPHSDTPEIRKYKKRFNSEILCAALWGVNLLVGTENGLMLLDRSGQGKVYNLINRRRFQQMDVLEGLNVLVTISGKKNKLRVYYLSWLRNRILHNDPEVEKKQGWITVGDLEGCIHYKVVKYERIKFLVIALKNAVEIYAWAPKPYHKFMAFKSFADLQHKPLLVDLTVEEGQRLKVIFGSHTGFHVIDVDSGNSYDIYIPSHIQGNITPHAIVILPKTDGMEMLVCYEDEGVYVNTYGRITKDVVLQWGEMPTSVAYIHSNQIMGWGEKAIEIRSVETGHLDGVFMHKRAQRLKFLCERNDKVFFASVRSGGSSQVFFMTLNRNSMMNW
# Procedure: as §1
# [11] = target: T10, CDK2 (Homo sapiens, UniProt P24941); assay: Radiometric HotSpot kinase assay; format: biochemical; details: n = 3, remaining activity vs DMSO, read-out: Enzyme activity (%) CDK2
# T10 construct: purchased Reaction Biology
# Procedure: as §1
# [12] = tested on: U2OS cells; assay: TMT quantitative proteomics of compound-treated U2OS cells; format: cell-based, human; details: 10 μM, 48 h, vs DMSO
# [13] = tested on: Synechococcus elongatus; assay: Luminescence rhythm period assay in cyanobacteria; details: 3, 8, 16 and 32 μM
# Procedure: The D730nm was maintained between 0.27 and 0.45 by dilution with fresh medium.
# Circadian period–altering compounds (dissolved in DMSO, final 0.5% DMSO) were then added in the air medium to reach the different desired concentrations. […] Images were generated from integrated photon counts over 25 min every 30 min using Metamorph software (Molecular Devices). […] Exported images were composed into image stacks and were quantified in a time series using a custom script in NIH ImageJ software, applying the “Multi Measure” plugin.
# [14] = 100 μM, n = 3, remaining activity vs DMSO
smiles,measurement,setting,value
Cc1cc2sc(NC(=O)Cc3ccccc3)nc2cc1Cl [LH846],Effect of kinase inhibitor on circadian period length,[1],substantial dose-dependent increase in the period length
NC(=O)c1ccc(-c2nc(-c3ccc4c(c3)OCCO4)c(-c3ccccn3)[nH]2)cc1 [D4476],Effect of kinase inhibitor on circadian period length,[1],substantial dose-dependent increase in the period length
"CC(C)[C@H](CO)Nc1nc(Nc2cccc(Cl)c2)c2ncn(C(C)C)c2n1 [Purvalanol A, purvalanol A]",remaining activity at 100 µM,[2]; [14],53.2%
same,remaining activity at 100 µM,[3]; [14],66.5%
same,remaining activity at 100 µM,[4],21.7%
same,remaining activity at 100 µM,[5]; [14],32.7%
same,remaining activity at 100 µM,[6]; [14],83.6%
same,remaining activity at 100 µM,[7],3.8%
same,remaining activity at 100 µM,[8]; [14],76.9%
same,remaining activity at 100 µM,[9]; [14],49.2%
same,remaining activity at 100 µM,[10]; [14],2.3%
same,IC50,"[10]; 10-dose, threefold serial dilution starting at 100 μM",< 500 nM
same,remaining activity at 100 µM,[11],0.7%
same,Circadian period length,[1],25.2 ± 0.04 h
same,Average Fold-change Acsf2 Q96CM8,[12],1.16
same,Average Fold-change Alcam Q13740,[12],1.20
same,Average Fold-change Arhgap29 Q52LW3,[12],1.19
same,Average Fold-change Cav1 Q03135,[12],1.17
same,Average Fold-change Cavin1 Q6NZI2,[12],1.22
same,Average Fold-change Cavin2 O95810,[12],1.29
same,Average Fold-change Cd47 Q08722,[12],1.17
same,Average Fold-change Cdk6 Q00534,[12],0.86
same,Average Fold-change Cdk7 P50613,[12],0.74
same,Average Fold-change Cdkn1a P38936,[12],1.52
same,Average Fold-change Cdkn1b P46527,[12],1.37
same,Average Fold-change Cers5 Q8N5B7,[12],1.14
same,Average Fold-change Cks1b P61024,[12],0.85
same,Average Fold-change Cks2 P33552,[12],0.83
same,Average Fold-change Col1a1 P02452,[12],0.80
same,Average Fold-change Ctsb P07858,[12],1.29
same,Average Fold-change Dpysl4 O14531,[12],1.15
same,Average Fold-change Fas P25445,[12],1.18
same,Average Fold-change Gls O94925,[12],0.80
same,Average Fold-change Gys1 P13807,[12],1.22
same,Average Fold-change H1f0 P07305,[12],1.20
same,Average Fold-change Hist1h4a P62805,[12],1.50
same,Average Fold-change Hist2h3a Q71DI3,[12],1.29
same,Average Fold-change Hmga1 P17096,[12],1.16
same,Average Fold-change Hmgcs1 Q01581,[12],0.77
same,Average Fold-change Hmgn2 P05204,[12],1.15
same,Average Fold-change Irf2bpl Q9H1B7,[12],1.15
same,Average Fold-change Itga2 P17301,[12],1.20
same,Average Fold-change Itga3 P26006,[12],1.17
same,Average Fold-change Naga P17050,[12],1.19
same,Average Fold-change Nbn O60934,[12],0.83
same,Average Fold-change Npc2 P61916,[12],1.33
same,Average Fold-change Pak1 Q13153,[12],1.19
same,Average Fold-change Ppp1cc P36873,[12],0.85
same,Average Fold-change Psap P07602,[12],1.20
same,Average Fold-change Rpl14 P50914,[12],0.75
same,Average Fold-change S100a2 P29034,[12],1.30
same,Average Fold-change Selenoh Q8IZQ5,[12],1.14
same,Average Fold-change Slc5a3 P53794,[12],1.16
same,Average Fold-change Slc20a1 Q8WUM9,[12],1.20
same,Average Fold-change Tada3 O75528,[12],1.28
same,Average Fold-change Uhrf1 Q96T88,[12],0.82
same,Effect on period length in cyanobacteria,[13],do not affect period length
"CC(C)n1cnc2c(NCc3cccc(C(F)(F)F)c3)ncnc21 [Longdaysin, longdaysin]",Circadian period length,[1],35.1 ± 1.29 h
same,Average Fold-change Acot9 Q9Y305,[12],0.86
same,Average Fold-change Atp5f1e P56381,[12],0.88
same,Average Fold-change Bak1 Q16611,[12],1.18
same,Average Fold-change Cdk7 P50613,[12],0.85
same,Average Fold-change Col1a1 P02452,[12],0.83
same,Average Fold-change Csnk2a2 P19784,[12],0.81
same,Average Fold-change Csnk1d P48730,[12],0.75
same,Average Fold-change Ctsb P07858,[12],1.19
same,Average Fold-change Cyb5b O43169,[12],1.15
same,Average Fold-change Emsy Q7Z589,[12],0.86
same,Average Fold-change Gusb P08236,[12],1.17
same,Average Fold-change H1f0 P07305,[12],1.31
same,Average Fold-change Hist1h4a P62805,[12],1.36
same,Average Fold-change Hist2h3a Q71DI3,[12],1.28
same,Average Fold-change Krt9 P35527,[12],0.78
same,Average Fold-change Mapk1 P28482,[12],0.75
same,Average Fold-change Mapk14 Q16539,[12],0.78
same,Average Fold-change Nemf O60524,[12],0.80
same,Average Fold-change Npc2 P61916,[12],1.20
same,Average Fold-change Nucks1 Q9H1E3,[12],1.22
same,Average Fold-change Ppig Q13427,[12],0.89
same,Average Fold-change Rpl7a P62424,[12],0.85
same,Average Fold-change Rpl14 P50914,[12],0.80
same,Average Fold-change Rpl18 Q07020,[12],0.85
same,Average Fold-change Rpl28 P46779,[12],0.86
same,Average Fold-change Rpl37 P61927,[12],0.87
same,Average Fold-change Rpl37a P61513,[12],0.88
same,Average Fold-change Smarcd2 Q92925,[12],0.88
same,Average Fold-change Spryd4 Q8WW59,[12],0.78
same,Average Fold-change Tecr Q9NZ01,[12],0.46
same,Average Fold-change Terf2 Q15554,[12],1.15
same,Effect on period length in cyanobacteria,[13],do not affect period length
COc1ccc2c(c1)/C(=C/c1cnc[nH]1)C(=O)N2 [SU9516],Effect of kinase inhibitor on circadian period length,[1],substantial dose-dependent increase in the period length
"CC[C@H](CO)Nc1nc(NCc2ccccc2)c2ncn(C(C)C)c2n1 [Roscovitine, roscovitine]",remaining activity at 100 µM,[2],38.9%
same,remaining activity at 100 µM,[3],50.6%
same,remaining activity at 100 µM,[5],40.1%
same,remaining activity at 100 µM,[6],59.1%
same,remaining activity at 100 µM,[7],4%
same,remaining activity at 100 µM,[8],89.4%
same,remaining activity at 100 µM,[9],56.7%
same,remaining activity at 100 µM,[10],7.8%
same,Circadian period length,[1],28.9 ± 0.08 h
same,Effect on period length in cyanobacteria,[13],do not affect period length
